Experimental data reported in the supplement of paper PMC12463676, “Small-molecule dissolution of stress granules by redox modulation benefits ALS models” (Nature Chemical Biology, 2025).
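Also: each temperature applied for 3 min, abundance score taken as mean log2 fold change at the two lowest temperatures, z-score obtained by mean subtraction and division by SD.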

Sequence of UniProt P10412 (P10412 whole entry): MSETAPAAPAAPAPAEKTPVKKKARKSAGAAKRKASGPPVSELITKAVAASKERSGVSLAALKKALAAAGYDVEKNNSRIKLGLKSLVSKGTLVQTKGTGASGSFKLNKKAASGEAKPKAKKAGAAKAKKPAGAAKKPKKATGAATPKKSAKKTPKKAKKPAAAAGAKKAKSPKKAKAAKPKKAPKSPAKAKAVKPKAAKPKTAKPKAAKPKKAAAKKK
Sequence of UniProt Q9BW85 (Q9BW85 whole entry): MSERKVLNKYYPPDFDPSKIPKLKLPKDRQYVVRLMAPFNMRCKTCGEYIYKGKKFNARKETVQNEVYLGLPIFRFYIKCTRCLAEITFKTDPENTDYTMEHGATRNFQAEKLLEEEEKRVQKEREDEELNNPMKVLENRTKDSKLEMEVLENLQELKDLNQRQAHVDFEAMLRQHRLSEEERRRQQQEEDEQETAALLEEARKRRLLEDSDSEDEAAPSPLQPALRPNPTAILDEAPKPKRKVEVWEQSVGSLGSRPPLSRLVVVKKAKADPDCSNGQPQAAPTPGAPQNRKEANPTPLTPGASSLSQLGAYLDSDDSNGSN
Sequence of UniProt Q16798 (Q16798 whole entry): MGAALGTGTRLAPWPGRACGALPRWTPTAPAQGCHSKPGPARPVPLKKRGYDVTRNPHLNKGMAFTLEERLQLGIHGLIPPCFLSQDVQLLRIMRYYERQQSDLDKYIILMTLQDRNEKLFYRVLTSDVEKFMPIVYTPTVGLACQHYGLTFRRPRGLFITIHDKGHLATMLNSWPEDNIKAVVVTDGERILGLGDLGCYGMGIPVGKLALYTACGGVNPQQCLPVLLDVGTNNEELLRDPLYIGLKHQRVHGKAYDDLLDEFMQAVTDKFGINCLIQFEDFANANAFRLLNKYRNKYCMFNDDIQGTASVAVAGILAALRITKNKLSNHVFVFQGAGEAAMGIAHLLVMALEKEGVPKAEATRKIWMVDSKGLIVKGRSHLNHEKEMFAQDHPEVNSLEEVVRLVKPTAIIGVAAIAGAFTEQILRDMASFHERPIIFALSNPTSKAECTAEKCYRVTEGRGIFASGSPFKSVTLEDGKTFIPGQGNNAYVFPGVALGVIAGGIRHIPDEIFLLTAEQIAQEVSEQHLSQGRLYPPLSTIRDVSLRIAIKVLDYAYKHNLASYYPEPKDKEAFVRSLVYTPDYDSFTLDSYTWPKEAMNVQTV
Sequence of UniProt P46019 (P46019 whole entry): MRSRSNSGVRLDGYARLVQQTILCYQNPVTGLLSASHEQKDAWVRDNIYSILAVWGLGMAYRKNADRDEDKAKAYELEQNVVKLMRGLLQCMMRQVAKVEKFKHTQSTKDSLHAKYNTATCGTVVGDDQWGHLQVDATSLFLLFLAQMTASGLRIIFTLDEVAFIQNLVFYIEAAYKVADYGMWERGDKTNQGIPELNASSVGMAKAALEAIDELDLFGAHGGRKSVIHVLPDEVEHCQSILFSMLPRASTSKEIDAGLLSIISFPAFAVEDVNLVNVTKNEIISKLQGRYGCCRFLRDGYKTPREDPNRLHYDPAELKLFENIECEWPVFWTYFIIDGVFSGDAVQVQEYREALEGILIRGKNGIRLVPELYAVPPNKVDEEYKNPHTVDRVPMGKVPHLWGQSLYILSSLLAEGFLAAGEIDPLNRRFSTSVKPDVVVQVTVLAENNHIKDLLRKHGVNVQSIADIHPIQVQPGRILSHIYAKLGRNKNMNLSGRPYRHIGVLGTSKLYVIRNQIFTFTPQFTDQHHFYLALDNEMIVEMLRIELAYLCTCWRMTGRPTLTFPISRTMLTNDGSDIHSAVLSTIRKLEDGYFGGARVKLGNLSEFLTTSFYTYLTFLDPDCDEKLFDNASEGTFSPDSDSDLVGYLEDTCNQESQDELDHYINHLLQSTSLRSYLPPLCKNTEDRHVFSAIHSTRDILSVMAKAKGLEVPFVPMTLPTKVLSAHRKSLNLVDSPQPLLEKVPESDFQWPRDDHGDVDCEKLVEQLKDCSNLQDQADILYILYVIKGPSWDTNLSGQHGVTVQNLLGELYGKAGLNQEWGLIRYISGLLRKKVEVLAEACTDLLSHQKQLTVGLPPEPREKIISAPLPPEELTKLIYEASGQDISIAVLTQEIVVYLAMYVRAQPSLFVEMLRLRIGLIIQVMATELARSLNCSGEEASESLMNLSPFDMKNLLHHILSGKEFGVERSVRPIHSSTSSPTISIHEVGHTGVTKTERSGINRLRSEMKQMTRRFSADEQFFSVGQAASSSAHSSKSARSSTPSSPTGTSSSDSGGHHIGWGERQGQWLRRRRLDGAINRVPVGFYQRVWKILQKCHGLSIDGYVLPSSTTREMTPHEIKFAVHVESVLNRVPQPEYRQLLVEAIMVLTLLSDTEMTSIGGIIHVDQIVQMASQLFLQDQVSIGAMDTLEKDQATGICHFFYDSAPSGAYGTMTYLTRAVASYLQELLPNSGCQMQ
Sequence of UniProt Q9UBF8 (Q9UBF8 whole entry, looked up): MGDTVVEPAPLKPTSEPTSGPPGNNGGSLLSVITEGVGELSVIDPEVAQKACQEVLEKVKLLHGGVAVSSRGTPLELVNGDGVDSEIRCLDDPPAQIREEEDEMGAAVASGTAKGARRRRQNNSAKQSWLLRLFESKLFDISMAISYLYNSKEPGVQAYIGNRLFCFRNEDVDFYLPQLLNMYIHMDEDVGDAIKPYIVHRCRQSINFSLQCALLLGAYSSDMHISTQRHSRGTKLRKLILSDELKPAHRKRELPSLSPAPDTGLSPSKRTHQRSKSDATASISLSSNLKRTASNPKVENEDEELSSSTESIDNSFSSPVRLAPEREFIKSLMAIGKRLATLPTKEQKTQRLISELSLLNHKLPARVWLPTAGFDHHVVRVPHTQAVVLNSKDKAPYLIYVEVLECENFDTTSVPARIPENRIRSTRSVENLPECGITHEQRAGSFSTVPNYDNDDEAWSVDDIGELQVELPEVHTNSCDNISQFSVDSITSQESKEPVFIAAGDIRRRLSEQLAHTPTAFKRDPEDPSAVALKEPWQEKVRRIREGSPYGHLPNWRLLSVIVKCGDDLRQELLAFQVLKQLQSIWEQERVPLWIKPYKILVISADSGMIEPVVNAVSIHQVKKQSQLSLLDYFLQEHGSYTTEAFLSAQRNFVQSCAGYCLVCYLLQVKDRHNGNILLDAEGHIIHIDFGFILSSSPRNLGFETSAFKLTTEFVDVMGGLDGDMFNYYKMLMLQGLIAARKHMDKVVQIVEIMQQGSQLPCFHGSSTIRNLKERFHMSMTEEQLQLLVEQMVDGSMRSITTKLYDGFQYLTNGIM
Sequence of UniProt Q8TF05 (Q8TF05 whole entry): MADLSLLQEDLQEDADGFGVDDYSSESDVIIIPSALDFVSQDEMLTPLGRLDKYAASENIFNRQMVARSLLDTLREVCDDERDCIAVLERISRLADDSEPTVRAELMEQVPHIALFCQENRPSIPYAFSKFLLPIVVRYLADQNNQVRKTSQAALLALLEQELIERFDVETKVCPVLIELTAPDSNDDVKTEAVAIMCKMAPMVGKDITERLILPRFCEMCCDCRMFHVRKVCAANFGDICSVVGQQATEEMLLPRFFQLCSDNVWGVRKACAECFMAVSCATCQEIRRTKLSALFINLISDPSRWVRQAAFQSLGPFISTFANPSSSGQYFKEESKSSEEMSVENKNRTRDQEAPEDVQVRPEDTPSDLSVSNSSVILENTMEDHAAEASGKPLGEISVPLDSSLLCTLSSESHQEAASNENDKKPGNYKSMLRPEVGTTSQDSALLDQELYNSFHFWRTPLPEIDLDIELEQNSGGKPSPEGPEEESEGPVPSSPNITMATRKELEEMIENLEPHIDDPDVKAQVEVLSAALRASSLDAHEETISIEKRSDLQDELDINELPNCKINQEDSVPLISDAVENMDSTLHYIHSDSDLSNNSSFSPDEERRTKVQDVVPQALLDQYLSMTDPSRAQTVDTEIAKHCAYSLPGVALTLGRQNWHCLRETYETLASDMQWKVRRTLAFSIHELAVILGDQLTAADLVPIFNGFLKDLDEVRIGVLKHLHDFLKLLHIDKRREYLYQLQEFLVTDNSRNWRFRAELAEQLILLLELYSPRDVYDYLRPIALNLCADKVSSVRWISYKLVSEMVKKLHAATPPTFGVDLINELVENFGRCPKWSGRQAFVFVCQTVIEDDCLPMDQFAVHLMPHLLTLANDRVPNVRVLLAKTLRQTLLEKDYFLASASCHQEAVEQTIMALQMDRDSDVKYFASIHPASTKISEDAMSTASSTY
Sequence of UniProt Q86Y56 (Q86Y56 whole entry): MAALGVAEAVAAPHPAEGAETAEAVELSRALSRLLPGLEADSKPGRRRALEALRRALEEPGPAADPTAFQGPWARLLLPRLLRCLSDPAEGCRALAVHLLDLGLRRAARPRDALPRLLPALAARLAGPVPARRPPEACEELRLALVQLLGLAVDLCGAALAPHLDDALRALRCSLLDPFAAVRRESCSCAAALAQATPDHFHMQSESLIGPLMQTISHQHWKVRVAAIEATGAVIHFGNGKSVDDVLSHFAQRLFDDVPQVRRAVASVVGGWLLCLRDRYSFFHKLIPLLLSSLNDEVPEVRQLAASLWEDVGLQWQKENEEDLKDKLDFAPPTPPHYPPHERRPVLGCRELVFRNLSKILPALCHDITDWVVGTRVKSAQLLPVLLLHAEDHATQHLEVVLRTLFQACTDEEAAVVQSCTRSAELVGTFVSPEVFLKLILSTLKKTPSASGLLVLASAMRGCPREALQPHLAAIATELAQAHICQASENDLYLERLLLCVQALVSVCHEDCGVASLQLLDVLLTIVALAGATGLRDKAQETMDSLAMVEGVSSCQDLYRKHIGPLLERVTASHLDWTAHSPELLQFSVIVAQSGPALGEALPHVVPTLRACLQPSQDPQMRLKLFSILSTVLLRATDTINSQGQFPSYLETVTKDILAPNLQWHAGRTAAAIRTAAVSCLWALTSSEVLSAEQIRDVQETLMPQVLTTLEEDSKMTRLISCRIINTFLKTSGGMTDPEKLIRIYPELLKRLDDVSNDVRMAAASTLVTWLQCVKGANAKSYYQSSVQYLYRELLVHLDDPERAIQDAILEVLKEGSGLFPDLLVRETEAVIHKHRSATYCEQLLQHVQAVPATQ

The targets below were run with NC(=O)CCCCC1CCSS1 [lipoamide] (assay: thermal stability z-score vs DMSO; higher = more thermally stabilized by treatment). Details: HeLa; lipoamide concentration 100 µM; arsenate co-treatment: 1 mM arsenate 1 h.
Method: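 Cellular thermal proteome profiling in HeLa cells. Cells were treated with 100 µM lipoamide for 1 h, with or without 1 mM arsenate for a further 1 h, then heated to ten temperatures (37-66.3 °C), and soluble protein was quantified by TMT mass spectrometry relative to 0.1% DMSO controls. The thermal stability score (sum of log2 fold changes minus the abundance score) was transformed to a z-score; mean of n = 3 experiments.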
RARS2 (UniProt Q5T160) gave a thermal stability z-score of 0.0904. AEBP2 (UniProt Q6ZN18) gave a thermal stability z-score of -0.0576. YPEL5 (UniProt P62699) gave a thermal stability z-score of -0.116. UNC45A (UniProt Q9H3U1) was tested, and the thermal stability z-score was -0.649. For PPP4R1 (UniProt Q8TF05), the thermal stability z-score was 0.26. PHKA2 (UniProt P46019) showed a thermal stability z-score of -0.174. With CUL5 (UniProt Q93034) the thermal stability z-score was 0.631. GKAP1 (UniProt Q5VSY0) showed a thermal stability z-score of 0.161. For USP33 (UniProt Q8TEY7), the thermal stability z-score was -0.155. Work on CCDC94 (UniProt Q9BW85) yielded a thermal stability z-score of -0.377. Work on UBTF (UniProt P17480) yielded a thermal stability z-score of 0.142. In the case of NFIA (UniProt Q12857), the thermal stability z-score is reported as -1.05. Work on UGP2 (UniProt Q16851) yielded a thermal stability z-score of 0.388. STK38L (UniProt Q9Y2H1) was tested, and the thermal stability z-score was 0.0467. With ME3 (UniProt Q16798) the thermal stability z-score was 1.29. ECE1 (UniProt P42892) gave a thermal stability z-score of -0.298. With YBX1 (UniProt P67809) the thermal stability z-score was -0.0518. For CSE1L (UniProt P55060), the thermal stability z-score was 0.582. For RAD51B (UniProt O15315), the thermal stability z-score was 0.231. ALDH16A1 (UniProt Q8IZ83) was tested, and the thermal stability z-score was -0.127. In the case of CCNB1 (UniProt P14635), the thermal stability z-score is reported as 0.729. In the case of TFDP1 (UniProt Q14186), the thermal stability z-score is reported as -0.00506. PI4KB (UniProt Q9UBF8) showed a thermal stability z-score of -0.62. HIST1H1E (UniProt P10412) showed a thermal stability z-score of 0.132. ALG14 (UniProt Q96F25) gave a thermal stability z-score of -0.0836. UPF1 (UniProt Q92900) gave a thermal stability z-score of 0.222. LONP1 (UniProt P36776) was tested, and the thermal stability z-score was -0.482. In the case of ALDH1A3 (UniProt P47895), the thermal stability z-score is reported as 0.622. In the case of C10ORF76 (UniProt Q5T2E6), the thermal stability z-score is reported as -0.9. SHKBP1 (UniProt Q8TBC3) gave a thermal stability z-score of 0.0505. DPH6 (UniProt Q7L8W6) showed a thermal stability z-score of -0.187. With ABI1 (UniProt Q8IZP0) the thermal stability z-score was -0.715. DNAAF5 (UniProt Q86Y56) was tested, and the thermal stability z-score was -0.979. With MRE11A (UniProt P49959) the thermal stability z-score was 0.729. PSMA5 (UniProt P28066) gave a thermal stability z-score of 0.148. In the case of SMYD3 (UniProt Q9H7B4), the thermal stability z-score is reported as -0.135.

Same assay, conditions: HeLa; lipoamide concentration 100 µM; arsenate co-treatment: none
Target EXOSC4 (UniProt Q9NPD3) has a thermal stability z-score of -0.104. Work on MRPL47 (UniProt Q9HD33) yielded a thermal stability z-score of -0.0176. Work on TP53RK (UniProt Q96S44) yielded a thermal stability z-score of -0.743. POLR1B (UniProt Q9H9Y6) showed a thermal stability z-score of -0.017. For PMPCA (UniProt Q10713), the thermal stability z-score was -0.112. With COBL (UniProt O75128) the thermal stability z-score was 0.154. Target ALKBH2 (UniProt Q6NS38) has a thermal stability z-score of 0.149. CHP1 (UniProt Q99653) gave a thermal stability z-score of 0.436. MICALL2 (UniProt Q8IY33) was tested, and the thermal stability z-score was 0.00775. DHX36 (UniProt Q9H2U1) was tested, and the thermal stability z-score was -0.0965. VKORC1 (UniProt Q9BQB6) was tested, and the thermal stability z-score was -1.59. For HTT (UniProt P42858), the thermal stability z-score was -0.0612. KIAA1217 (UniProt Q5T5P2) gave a thermal stability z-score of -0.0174. NUP188 (UniProt Q5SRE5) was tested, and the thermal stability z-score was -0.512. AGFG2 (UniProt O95081) was tested, and the thermal stability z-score was -0.0283. RELB (UniProt Q01201) showed a thermal stability z-score of -0.07. Work on AP1B1 (UniProt Q10567) yielded a thermal stability z-score of 0.0123. In the case of ACSL4 (UniProt O60488), the thermal stability z-score is reported as 0.296. For STAG2 (UniProt Q8N3U4), the thermal stability z-score was 0.393. TIMM50 (UniProt Q3ZCQ8) was tested, and the thermal stability z-score was -0.179. Target PMM1 (UniProt Q92871) has a thermal stability z-score of 0.072. For SNRPC (UniProt P09234), the thermal stability z-score was 0.0659. For MRPL18 (UniProt Q9H0U6), the thermal stability z-score was -0.0505. NUBP2 (UniProt Q9Y5Y2) gave a thermal stability z-score of -0.855. ALKBH1 (UniProt Q13686) gave a thermal stability z-score of 0.171. CHMP7 (UniProt Q8WUX9) gave a thermal stability z-score of -0.865. In the case of FAM192A (UniProt Q9GZU8), the thermal stability z-score is reported as 0.455. In the case of CTDP1 (UniProt Q9Y5B0), the thermal stability z-score is reported as -0.652. With AQR (UniProt O60306) the thermal stability z-score was 0.297. Target SNF8 (UniProt Q96H20) has a thermal stability z-score of -0.418. For FAM45BP|FAM45A, the thermal stability z-score was 1.28. SLC25A1 (UniProt P53007) showed a thermal stability z-score of 0.6. For GXYLT1 (UniProt Q4G148), the thermal stability z-score was -0.906. With MPHOSPH10 (UniProt O00566) the thermal stability z-score was 0.827. STRN4 (UniProt Q9NRL3) was tested, and the thermal stability z-score was 0.198. In the case of RARS2 (UniProt Q5T160), the thermal stability z-score is reported as -0.0472. With AEBP2 (UniProt Q6ZN18) the thermal stability z-score was -0.195. In the case of YPEL5 (UniProt P62699), the thermal stability z-score is reported as -0.259. For UNC45A (UniProt Q9H3U1), the thermal stability z-score was -0.167. In the case of PPP4R1 (UniProt Q8TF05), the thermal stability z-score is reported as 0.0864. Work on PHKA2 (UniProt P46019) yielded a thermal stability z-score of 0.096. Work on CUL5 (UniProt Q93034) yielded a thermal stability z-score of 0.636. Target GKAP1 (UniProt Q5VSY0) has a thermal stability z-score of 0.36. USP33 (UniProt Q8TEY7) gave a thermal stability z-score of -0.011. Target CCDC94 (UniProt Q9BW85) has a thermal stability z-score of -0.352. With UBTF (UniProt P17480) the thermal stability z-score was 0.184. Work on NFIA (UniProt Q12857) yielded a thermal stability z-score of -1.1. For UGP2 (UniProt Q16851), the thermal stability z-score was -0.0879. STK38L (UniProt Q9Y2H1) gave a thermal stability z-score of 0.0651. ME3 (UniProt Q16798) showed a thermal stability z-score of 1.51. Target ECE1 (UniProt P42892) has a thermal stability z-score of -0.225. In the case of YBX1 (UniProt P67809), the thermal stability z-score is reported as -0.23. CSE1L (UniProt P55060) gave a thermal stability z-score of 0.825. Target RAD51B (UniProt O15315) has a thermal stability z-score of 0.428. Target ALDH16A1 (UniProt Q8IZ83) has a thermal stability z-score of -0.311. CCNB1 (UniProt P14635) showed a thermal stability z-score of 0.477. For TFDP1 (UniProt Q14186), the thermal stability z-score was 0.0652. In the case of PI4KB (UniProt Q9UBF8), the thermal stability z-score is reported as 0.386. With HIST1H1E (UniProt P10412) the thermal stability z-score was 0.627. ALG14 (UniProt Q96F25) gave a thermal stability z-score of -0.394. In the case of UPF1 (UniProt Q92900), the thermal stability z-score is reported as -0.246. For LONP1 (UniProt P36776), the thermal stability z-score was -0.277. Work on ALDH1A3 (UniProt P47895) yielded a thermal stability z-score of 0.25. C10ORF76 (UniProt Q5T2E6) was tested, and the thermal stability z-score was 0.306. SHKBP1 (UniProt Q8TBC3) gave a thermal stability z-score of 0.242. DPH6 (UniProt Q7L8W6) gave a thermal stability z-score of -0.152. ABI1 (UniProt Q8IZP0) showed a thermal stability z-score of -0.452. DNAAF5 (UniProt Q86Y56) showed a thermal stability z-score of 0.336. MRE11A (UniProt P49959) gave a thermal stability z-score of 0.164. In the case of PSMA5 (UniProt P28066), the thermal stability z-score is reported as 0.204. For SMYD3 (UniProt Q9H7B4), the thermal stability z-score was -0.101.
